The record followed here is US20090221598A1, “Use of Sanglifehrin in HCV” (priority 2005, published 2009).

One data set relates to calcineurin. Kind of data set: Standard test for calcineurin activity. It is filed as biochemical. Conditions: standard tests.
A further data set has as its system FK binding protein. Kind of data set: Standard test for FK binding protein binding activity. The conditions noted are these: standard tests.
Data set [1] deals with human monocytic cell line THP1. Kind of data set: Cytotoxicity, MTT read-out. The class given is cell-based. On the procedure: Cytotoxicity is determined using the human monocytic cell line THP1 (5×10^4 cells/well) which are incubated in the presence of IFNgamma (100 U/ml) and LPS (5 microgram/ml) plus test compound (up to 10 micromolar) for 24 to 72 h at 37° C. Living cells are quantified using the colourimetric read-out MTT which measures mitochondrial dehydrogenase enzymatic activity in living cells (Mossman 1983). Macrolides of the invention, e.g. compounds of formula IX and their pharmaceutically acceptable salts, e.g. Sanglifehrins A, B, C and D, have IC50 of about 1000-5000 nM after 24 h incubation in this assay. (Mossman T. J. (1983), Rapid calorimetric assay for cellular growth and survival: application to proliferation and cytotoxic assays, J. Imm. Methods, 65, 55-63).

As to Sanglifehrin B, the “inhibition of calcineurin activity” value with calcineurin was “do not inhibit calcineurin activity”. Moreover, the “FK binding protein binding activity” value with FK binding protein was “do not have FK binding protein binding activity”. Further, in data set [1], the IC50 fell in the range of 1 to 5 µM.
With Sanglifehrin A, the “inhibition of calcineurin activity” value with calcineurin is on record as “do not inhibit calcineurin activity”. For the same substance, in the data set with FK binding protein, the “FK binding protein binding activity” value is given as “do not have FK binding protein binding activity”.

Usually IC50 stands for the concentration needed to halve the response being measured.
